According to US20260092061A1, “COMPOUNDS FOR TARGETED PROTEIN DEGRADATION” (Amphista Therapeutics Limited, priority 2022, published 2026):

How the values were obtained:
[1] = target: T1, BRD9 (Homo sapiens, UniProt Q9H8M2); experiment: BRD9 degradation, HiBiT-BRD9 KI HEK293 (LgBiT) cells, NanoGlo Lytic Endpoint assay (Assay Protocol 1); assay type: cell-based; conditions: BRD9 degradation; for Dmax / Dmax at 1 µM: HEK293; for Dmax at 1 µM: 1 μM compound at 6 h of treatment, read-out: Assay 1 Dmax
T1 sequence (Q9H8M2 1-597): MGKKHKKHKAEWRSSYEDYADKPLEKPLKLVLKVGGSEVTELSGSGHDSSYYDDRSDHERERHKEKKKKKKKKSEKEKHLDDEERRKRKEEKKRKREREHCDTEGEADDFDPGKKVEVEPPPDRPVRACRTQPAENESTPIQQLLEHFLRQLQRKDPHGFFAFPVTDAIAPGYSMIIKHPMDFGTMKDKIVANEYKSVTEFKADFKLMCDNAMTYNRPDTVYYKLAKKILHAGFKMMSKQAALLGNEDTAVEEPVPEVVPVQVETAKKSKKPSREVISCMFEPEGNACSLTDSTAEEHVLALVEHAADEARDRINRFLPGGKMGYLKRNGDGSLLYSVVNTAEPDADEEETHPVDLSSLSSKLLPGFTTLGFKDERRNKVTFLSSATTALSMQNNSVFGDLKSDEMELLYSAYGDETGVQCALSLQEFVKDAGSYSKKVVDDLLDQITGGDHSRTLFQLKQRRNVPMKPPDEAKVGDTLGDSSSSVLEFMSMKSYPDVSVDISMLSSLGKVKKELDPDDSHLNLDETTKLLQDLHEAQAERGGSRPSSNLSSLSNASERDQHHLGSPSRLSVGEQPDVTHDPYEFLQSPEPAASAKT
Outline: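 HiBiT-tagged BRD9 knock-in HEK293 (LgBiT) cells exposed to compounds for 6 h at 37 °C, 5% CO2. Residual BRD9 measured by HiBiT lytic luminescence. % BRD9 remaining normalised to DMSO-treated cells (high) and no-cell wells (low).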

[2] = target: T1, BRD9; experiment: Degradation of BRD9 (IF), immunofluorescence in MV4-11 cells, 24 hours (Assay Protocol 2); assay type: cell-based; parameters: A suspension of MV4-11 cells (ATCC CRL-9591) was prepared; host or cells: MV4-11
Outline: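 % BRD9 remaining, scaled between DMSO (high) and 100 nM CFT-8634 (low) control wells, derives from mean Alexa 647 contrast in central nuclei by high-content imaging. MV4-11 cells had 24 h compound exposure at 37° C. before PFA fixation, Triton permeabilisation and anti-BRD9 E4Q3F immunostaining.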

[3] = Assay protocol 1, read-out: DC50
[4] = Assay protocol 1, read-out: Dmax
[5] = Assay protocol 2, BRD9 degradation, read-out: DC50
[6] = MV4-11, Assay protocol 2, BRD9 degradation, read-out: Dmax
[7] = Table 4, determined according to Assay Protocol 1, read-out: Dmax^1
[8] = Table 4, determined according to Assay Protocol 1, read-out: DC50^1
[9] = MV4-11, Table 4, BRD9 degradation, determined according to Assay Protocol 2, read-out: Dmax^2
[10] = Table 4, BRD9 degradation, determined according to Assay Protocol 2, read-out: DC50^2
[11] = Table 2, Assay Protocol 1, 6 h of treatment, read-out: Assay 1 DC50
[12] = MV4-11, 24 h, Table 2, BRD9 degradation (IF), Assay Protocol 2, MV4-11 cells, read-out: Assay 2 DCmax
[13] = Table 2, BRD9 degradation (IF), Assay Protocol 2, MV4-11 cells, read-out: Assay 2 DC50

DC50 [1, 3]	Dmax [1, 4]	DC50 [2, 5]	Dmax [2, 6]	SMILES	other results
25 to 1000 nM	40 to 70%	25 to 1000 nM	40 to 70%	COc1cc(-c2cn(C)c(=O)c(C)c2C)cc(OC)c1CN1CCN(CC(=O)NCCOc2cccc(C3CCCN3C(=O)/C(C#N)=C/c3nccs3)c2)CC1 (mixture of isomers) [Compound B32, (E/Z)—N-(2-(3-(1-(2-cyano-3-(thiazol-2-yl)acryloyl)pyrrolidin-2-yl)phenoxy)ethyl)-2-(4-(2,6-dimethoxy-4-(1,4,5-trimethyl-6-oxo-1,6-dihydropyridin-3-yl)benzyl)piperazin-1-yl)acetamide]	
1.25 to 10 nM	> 75%	10 to 25 nM	> 75%	COc1cc(-c2cn(C)c(=O)c(C)c2C)cc(OC)c1CN(C)Cc1cccc(C2CCCN2C(=O)/C(C#N)=C/C(C)(C)C)c1 (mixture of isomers) [Compound B78, (E/Z)-2-(2-(3-(((2,6-dimethoxy-4-(1,4,5-trimethyl-6-oxo-1,6-dihydropyridin-3-ylbenzyl)methyl)amino)methyl)phenyl)pyrrolidine-1-carbonyl)-4,4-dimethylpent-2-enenitrile]	
< 1.25 nM	> 75%	< 1.25 nM	> 75%	COc1cc(-c2cn(C)c(=O)c(C)c2C)cc(OC)c1CN1CCN(Cc2cccc(C3CCCN3C(=O)/C(C#N)=C/c3nc(C(F)(F)F)cs3)c2)CC1 (stereo not drawn) [Compound B56]	
25 to 1000 nM	> 75%	10 to 25 nM	> 75%	COc1cc(-c2cn(C)c(=O)c(C)c2C)cc(OC)c1CN1CCN(C(=O)c2cccc(C3CCCN3C(=O)/C(C#N)=C/C(C)(C)C)c2)CC1 (mixture of isomers) [Compound B35, (E/Z)-2-(2-(3-(4-(2,6-dimethoxy-4-(1,4,5-trimethyl-6-oxo-1,6-dihydropyridin-3-yl)benzyl)piperazine-1-carbonyl)phenyl)pyrrolidine-1-carbonyl)-4,4-dimethylpent-2-enenitrile]	
1.25 to 10 nM	> 75%	< 1.25 nM	> 75%	COc1cc(-c2cn(C)c(=O)c(C)c2C)cc(OC)c1CN1CCN(Cc2cccc(C3CCCN3C(=O)/C(C#N)=C/c3cccc(C(F)(F)F)n3)c2)CC1 (stereo not drawn) [Compound B26]	
1.25 to 10 nM	40 to 70%	< 1.25 nM	40 to 70%	COc1cc(-c2cn(C)c(=O)c(C)c2C)cc(OC)c1CN(C)Cc1ccc2c(c1)CCN(C(=O)/C(C#N)=C/c1nc3ccccc3s1)C2C (mixture of isomers) [Compound B21, (E/Z)-3-(benzo[d]thiazol-2-yl)-2-(6-(((2,6-dimethoxy-4-(1,4,5-trimethyl-6-oxo-1,6-dihydropyridin-3-yl)benzyl)(methyl)amino)methyl)-1-methyl-1,2,3,4-tetrahydroisoquinoline-2-carbonyl)acrylonitrile]	
10 to 25 nM	> 75%	1.25 to 10 nM	> 75%	COc1cc(-c2cn(C)c(=O)c(C)c2C)cc(OC)c1C(=O)N1CCN(Cc2cccc(C3CCCN3C(=O)/C(C#N)=C/C(C)(C)C)c2)CC1 (mixture of isomers) [Compound B46, (E/Z)-2-(2-(3-((4-(2,6-dimethoxy-4-(1,4,5-trimethyl-6-oxo-1,6-dihydropyridin-3-yl)benzoyl)piperazin-1-yl)methyl)phenyl)pyrrolidine-1-carbonyl)-4,4-dimethylpent-2-enenitrile]	
< 1.25 nM	40 to 70%	< 1.25 nM	40 to 70%	COc1cc(-c2cn(C)c(=O)c(C)c2C)cc(OC)c1CN1CC2(C1)CN(c1cccc(C3CCCN3C(=O)/C(C#N)=C/C(C)(C)C)c1)C2 (mixture of isomers) [Compound B58, (E/Z)-2-(2-(3-(6-(2,6-dimethoxy-4-(1,4,5-trimethyl-6-oxo-1,6-dihydropyridin-3-yl)benzyl)-2,6-diazaspiro[3.3]heptan-2-yl)phenyl)pyrrolidine-1-carbonyl)-4,4-dimethylpent-2-enenitrile]	

The next lines start with the compound.

SMILES	DC50 [1, 3]	Dmax [1, 4]	DC50 [2, 5]	Dmax [2, 6]	other results
COc1cc(-c2cn(C)c(=O)c(C)c2C)cc(OC)c1CN1CCN(Cc2cccc3c2CCN(C(=O)/C(C#N)=C/c2cc(C)on2)C3C)CC1 (mixture of isomers) [Compound B4, (E/Z)-2-(5-((4-(2,6-dimethoxy-4-(1,4,5-trimethyl-6-oxo-1,6-dihydropyridin-3-yl)benzyl)piperazin-1-yl)methyl)-1-methyl-1,2,3,4-tetrahydroisoquinoline-2-carbonyl)-3-(5-methylisoxazol-3-yl)acrylonitrile]	1.25 to 10 nM	40 to 70%	1.25 to 10 nM	40 to 70%	
COc1cc(-c2cn(C)c(=O)c3ccsc23)cc(OC)c1CN1CCN(C(=O)/C(C#N)=C/C(C)(C)C)CC1 [BRD9w, (E/Z)-2-(4-(2,6-dimethoxy-4-(5-methyl-4-oxo-4,5-dihydrothieno[3,2-c]pyridin-7-yl)benzyl)piperazine-1-carbonyl)-4,4-dimethylpent-2-enenitrile]					Dmax [1, 7]: > 70%; DC50 [1, 8]: < 25 nM; Dmax [2, 9]: > 70%; DC50 [2, 10]: < 25 nM
COc1cc(-c2cn(C)c(=O)c(C)c2C)cc(OC)c1CN1CC2CC1CN2C(=O)/C(C#N)=C/c1cccc(Br)n1 (mixture of isomers) [BRD9j, (E/Z)-3-(6-bromopyridin-2-yl)-2-(5-(2,6-dimethoxy-4-(1,4,5-trimethyl-6-oxo-1,6-dihydropyridin-3-yl)benzyl)-2,5-diazabicyclo[2.2.1]heptane-2-carbonyl)acrylonitrile]					DC50 [1, 8]: < 25 nM; Dmax [2, 9]: > 70%; DC50 [2, 10]: < 25 nM
COc1cc(-c2cn(C)c(=O)c3cnccc23)cc(OC)c1CN1CCN(Cc2cccc3c2CCN(C(=O)/C(C#N)=C/C2(C)CC2)C3C)CC1 (mixture of isomers) [Compound A26, (E/Z)-2-(5-((4-(2,6-dimethoxy-4-(2-methyl-1-oxo-1,2-dihydro-2,7-naphthyridin-4-yl)benzyl)piperazin-1-yl)methyl)-1-methyl-1,2,3,4-tetrahydroisoquinoline-2-carbonyl)-3-(1-methylcyclopropyl)acrylonitrile]					Dmax at 1 µM ([1]; Table 2, Assay Protocol 1): 40 to 70%; DC50 [1, 11]: 1.25 to 10 nM; Dmax [2, 12]: 40 to 70%; DC50 [2, 13]: 25 to 300 nM
COc1cc(-c2cn(C)c(=O)c(C)c2C)cc(OC)c1CN1CC2CC(C1)N2C(=O)/C(C#N)=C/c1cccc(Br)n1 (mixture of isomers) [BRD9m, (E/Z)-3-(6-bromopyridin-2-yl)-2-(3-(2,6-dimethoxy-4-(1,4,5-trimethyl-6-oxo-1,6-dihydropyridin-3-yl)benzyl)-3,6-diazabicyclo[3.1.1]heptane-6-carbonyl)acrylonitrile]					Dmax [1, 7]: > 70%; DC50 [1, 8]: < 25 nM; DC50 [2, 10]: > 200 nM
COc1cc(-c2cn(C)c(=O)c3cnccc23)cc(OC)c1CN1CCCN(Cc2cccc3c2CCN(C(=O)/C(C#N)=C/C(C)(C)C)C3C)CC1 (mixture of isomers) [Compound A31, (E/Z)-2-(5-((4-(2,6-dimethoxy-4-(2-methyl-1-oxo-1,2-dihydro-2,7-naphthyridin-4-yl)benzyl)-1,4-diazepan-1-yl)methyl)-1-methyl-1,2,3,4-tetrahydroisoquinoline-2-carbonyl)-4,4-dimethylpent-2-enenitrile]					Dmax at 1 µM ([1]; Table 2, Assay Protocol 1): 70 to 75%; DC50 [1, 11]: 1.25 to 10 nM; Dmax [2, 12]: 40 to 70%; DC50 [2, 13]: 1.25 to 10 nM
COc1cc(-c2cn(C)c(=O)c(C)c2C)cc(OC)c1CN1CCN(Cc2cccc3c2CCN(C(=O)/C(C#N)=C/c2cccc(C(F)(F)F)n2)C3C)CC1 (mixture of isomers) [Compound A53, (E/Z)-2-(5-((4-(2,6-dimethoxy-4-(1,4,5-trimethyl-6-oxo-1,6-dihydropyridin-3-yl)benzyl)piperazin-1-yl)methyl)-1-methyl-1,2,3,4-tetrahydroisoquinoline-2-carbonyl)-3-(6-(trifluoromethyl)pyridin-2-yl)acrylonitrile]					Dmax at 1 µM ([1]; Table 2, Assay Protocol 1): 40 to 70%; DC50 [1, 11]: 1.25 to 10 nM; Dmax [2, 12]: 40 to 70%
COc1cc(-c2cn(C)c(=O)c(C)c2C)cc(OC)c1CN1CCN(C(=O)[C@@H]2CN(C(=O)/C(C#N)=C/c3nccs3)C[C@H]2c2cccc(C)c2)CC1 [Compound B213]					Dmax [1, 7]: 30 to 50%; Dmax [2, 9]: 50 to 70%; DC50 [2, 10]: > 200 nM
